Test results as given in ChEMBL document CHEMBL1909046, “DrugMatrix in vitro pharmacology data”.

What was measured:
[1] = molecular target: T1, Cholecystokinin receptor type A (Homo sapiens, UniProt P32238); format: cell membranes, Membrane; details: 1321-n1; note: in other assays of this panel Not Active means under 50% inhibition at 10 µM
T1 sequence (P32238 whole entry): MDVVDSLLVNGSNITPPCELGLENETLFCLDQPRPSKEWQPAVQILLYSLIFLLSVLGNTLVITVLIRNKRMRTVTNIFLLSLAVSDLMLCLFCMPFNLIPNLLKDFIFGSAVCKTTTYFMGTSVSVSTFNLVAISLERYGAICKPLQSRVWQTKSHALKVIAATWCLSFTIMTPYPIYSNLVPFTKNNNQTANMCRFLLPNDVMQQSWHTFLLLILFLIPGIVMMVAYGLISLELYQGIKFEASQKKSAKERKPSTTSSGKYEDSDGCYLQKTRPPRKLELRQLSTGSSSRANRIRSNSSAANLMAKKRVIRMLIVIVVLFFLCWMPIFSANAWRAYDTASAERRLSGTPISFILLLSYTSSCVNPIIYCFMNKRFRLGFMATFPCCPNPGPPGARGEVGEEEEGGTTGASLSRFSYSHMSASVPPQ

D(3) dopamine receptor = D(3) dopamine receptor (Homo sapiens, UniProt P35462); experiment: DRUGMATRIX: Dopamine D3 radioligand binding (ligand: [3H] Spiperone); format: cell membranes, CHO, Membrane; details: cho
[2] = molecular target: Delta-type opioid receptor (Homo sapiens, UniProt P41143); format: cell membranes, HEK293, Membrane; details: hek293; note: in other assays of this panel Not Active means under 50% inhibition at 10 µM
[3] = molecular target: T2, Receptor-type tyrosine-protein phosphatase C (Homo sapiens, UniProt P08575); design: species or system Escherichia coli;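 note: inhibition of CD45 enzyme activity measured using DiFMUP as substrate; in other assays of this panel Not Active means under 50% inhibition at 10 µM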
T2 sequence (P08575 whole entry): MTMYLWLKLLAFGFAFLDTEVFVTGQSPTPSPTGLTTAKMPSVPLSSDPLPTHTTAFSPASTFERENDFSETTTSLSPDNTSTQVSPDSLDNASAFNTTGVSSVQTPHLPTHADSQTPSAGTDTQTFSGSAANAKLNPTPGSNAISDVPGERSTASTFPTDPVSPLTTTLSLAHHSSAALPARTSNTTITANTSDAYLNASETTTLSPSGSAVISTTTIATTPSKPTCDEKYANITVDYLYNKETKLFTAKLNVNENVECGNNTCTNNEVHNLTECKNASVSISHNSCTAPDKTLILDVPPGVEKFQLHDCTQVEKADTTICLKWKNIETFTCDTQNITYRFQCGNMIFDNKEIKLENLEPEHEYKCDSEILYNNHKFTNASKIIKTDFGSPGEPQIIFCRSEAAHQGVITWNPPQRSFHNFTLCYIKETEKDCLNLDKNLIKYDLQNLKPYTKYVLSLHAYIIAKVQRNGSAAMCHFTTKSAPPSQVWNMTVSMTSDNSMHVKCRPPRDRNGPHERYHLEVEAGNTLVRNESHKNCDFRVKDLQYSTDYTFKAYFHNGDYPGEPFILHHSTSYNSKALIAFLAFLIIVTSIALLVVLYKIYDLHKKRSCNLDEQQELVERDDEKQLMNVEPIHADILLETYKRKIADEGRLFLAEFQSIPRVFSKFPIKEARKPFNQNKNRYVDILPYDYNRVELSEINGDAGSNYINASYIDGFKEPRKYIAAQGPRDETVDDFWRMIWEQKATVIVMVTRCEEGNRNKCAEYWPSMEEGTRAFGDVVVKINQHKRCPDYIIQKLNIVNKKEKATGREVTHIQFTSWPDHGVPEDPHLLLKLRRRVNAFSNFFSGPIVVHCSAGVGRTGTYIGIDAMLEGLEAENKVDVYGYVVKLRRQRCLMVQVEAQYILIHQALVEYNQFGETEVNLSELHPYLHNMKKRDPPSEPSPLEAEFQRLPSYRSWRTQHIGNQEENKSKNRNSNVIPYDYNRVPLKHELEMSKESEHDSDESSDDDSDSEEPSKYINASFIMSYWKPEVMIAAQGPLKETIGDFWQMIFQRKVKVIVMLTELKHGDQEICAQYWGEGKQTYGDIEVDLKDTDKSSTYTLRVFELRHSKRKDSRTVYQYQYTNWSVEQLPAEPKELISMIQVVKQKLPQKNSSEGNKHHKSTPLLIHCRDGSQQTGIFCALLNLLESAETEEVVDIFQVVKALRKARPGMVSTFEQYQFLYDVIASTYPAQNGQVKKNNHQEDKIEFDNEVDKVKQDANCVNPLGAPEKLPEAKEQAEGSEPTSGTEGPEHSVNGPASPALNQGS

Androgen receptor = molecular target: T3, Androgen receptor (Rattus norvegicus, UniProt P15207); note: in other assays of this panel Not Active means under 50% inhibition at 10 µM
T3 sequence (P15207 whole entry): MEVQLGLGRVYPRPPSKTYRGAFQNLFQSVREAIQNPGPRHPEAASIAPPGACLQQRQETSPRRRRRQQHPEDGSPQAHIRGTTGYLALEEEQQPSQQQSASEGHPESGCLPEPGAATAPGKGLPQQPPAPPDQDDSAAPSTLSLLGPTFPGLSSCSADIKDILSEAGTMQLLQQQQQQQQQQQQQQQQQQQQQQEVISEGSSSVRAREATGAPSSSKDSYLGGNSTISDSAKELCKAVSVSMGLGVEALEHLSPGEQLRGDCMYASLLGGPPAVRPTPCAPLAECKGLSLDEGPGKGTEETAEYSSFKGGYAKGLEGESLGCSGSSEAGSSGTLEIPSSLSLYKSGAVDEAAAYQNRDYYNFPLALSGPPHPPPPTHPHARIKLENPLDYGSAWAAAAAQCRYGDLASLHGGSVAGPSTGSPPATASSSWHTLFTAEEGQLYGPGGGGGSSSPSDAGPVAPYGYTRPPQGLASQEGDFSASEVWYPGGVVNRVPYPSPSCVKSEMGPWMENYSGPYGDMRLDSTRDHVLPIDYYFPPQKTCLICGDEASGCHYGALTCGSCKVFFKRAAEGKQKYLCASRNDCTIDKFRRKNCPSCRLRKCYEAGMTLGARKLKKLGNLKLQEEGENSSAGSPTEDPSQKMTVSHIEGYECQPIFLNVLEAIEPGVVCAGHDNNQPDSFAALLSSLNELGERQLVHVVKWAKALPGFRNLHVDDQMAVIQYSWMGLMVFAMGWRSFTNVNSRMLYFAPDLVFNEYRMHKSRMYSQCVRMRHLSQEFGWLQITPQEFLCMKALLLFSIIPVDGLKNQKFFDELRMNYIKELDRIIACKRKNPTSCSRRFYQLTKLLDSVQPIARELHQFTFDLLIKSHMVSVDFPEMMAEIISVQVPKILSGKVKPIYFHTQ

Cytochrome P450 2D6 = Cytochrome P450 2D6 (Homo sapiens, UniProt P10635); details: bti-tn-5b1-4; note: in other assays of this panel Not Active means under 50% inhibition at 10 µM
Cytochrome P450 2D6, sequence (P10635 whole entry): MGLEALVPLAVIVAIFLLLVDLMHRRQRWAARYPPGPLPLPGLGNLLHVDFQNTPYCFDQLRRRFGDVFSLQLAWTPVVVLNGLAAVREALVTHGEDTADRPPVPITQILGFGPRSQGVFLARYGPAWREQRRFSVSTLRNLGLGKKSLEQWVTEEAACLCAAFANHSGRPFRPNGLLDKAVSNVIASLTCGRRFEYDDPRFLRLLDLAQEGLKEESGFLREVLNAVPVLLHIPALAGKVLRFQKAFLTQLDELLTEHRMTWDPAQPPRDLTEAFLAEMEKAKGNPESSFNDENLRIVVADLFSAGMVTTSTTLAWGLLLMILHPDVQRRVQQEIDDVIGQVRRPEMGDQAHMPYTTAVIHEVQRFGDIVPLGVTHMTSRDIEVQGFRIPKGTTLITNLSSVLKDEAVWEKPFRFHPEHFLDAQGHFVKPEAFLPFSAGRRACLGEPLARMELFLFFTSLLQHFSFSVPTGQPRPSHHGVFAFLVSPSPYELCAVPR

D(3) dopamine receptor, sequence (P35462 whole entry): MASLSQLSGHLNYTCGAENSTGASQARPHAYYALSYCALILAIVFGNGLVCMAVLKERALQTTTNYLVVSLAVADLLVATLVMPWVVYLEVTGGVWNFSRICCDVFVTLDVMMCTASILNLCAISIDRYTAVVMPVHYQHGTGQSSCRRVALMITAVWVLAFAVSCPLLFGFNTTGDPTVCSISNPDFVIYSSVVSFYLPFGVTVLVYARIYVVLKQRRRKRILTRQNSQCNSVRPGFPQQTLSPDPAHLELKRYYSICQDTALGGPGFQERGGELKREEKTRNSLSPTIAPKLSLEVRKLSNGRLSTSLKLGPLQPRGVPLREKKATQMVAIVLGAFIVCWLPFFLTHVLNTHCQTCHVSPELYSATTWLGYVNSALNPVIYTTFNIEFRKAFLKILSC
Delta-type opioid receptor, sequence (P41143 whole entry): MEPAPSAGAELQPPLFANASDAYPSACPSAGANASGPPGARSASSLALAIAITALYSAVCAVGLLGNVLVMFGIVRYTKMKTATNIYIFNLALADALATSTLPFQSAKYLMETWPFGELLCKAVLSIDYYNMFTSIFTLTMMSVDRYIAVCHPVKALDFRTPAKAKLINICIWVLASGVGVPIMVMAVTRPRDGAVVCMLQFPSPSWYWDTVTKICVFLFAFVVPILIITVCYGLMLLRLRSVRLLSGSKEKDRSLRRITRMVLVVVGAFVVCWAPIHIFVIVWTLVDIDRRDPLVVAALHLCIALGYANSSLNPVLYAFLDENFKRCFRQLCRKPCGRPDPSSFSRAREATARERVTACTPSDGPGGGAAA

CC(C)CN(C[C@@H](O)[C@H](Cc1ccccc1)NC(=O)O[C@H]1CCOC1)S(=O)(=O)c1ccc(N)cc1
Not Active: IC50 [1] | IC50 (D(3) dopamine receptor) | IC50 [2] | IC50 [3] | IC50 (Androgen receptor)

NC(=O)N1c2ccccc2CCc2ccccc21
Not Active: IC50 [1] | IC50 (D(3) dopamine receptor) | IC50 [2] | IC50 [3] | IC50 (Androgen receptor) | IC50 (Cytochrome P450 2D6) | Ki (Cytochrome P450 2D6)

Cc1onc(O)c1CC(N)C(=O)O (racemic) [(R,S)-AMPA]
Not Active: IC50 [1] | IC50 (D(3) dopamine receptor) | IC50 [2] | IC50 [3] | IC50 (Androgen receptor) | IC50 (Cytochrome P450 2D6) | Ki (Cytochrome P450 2D6)

Nc1c(Br)cc(Br)cc1CN[C@H]1CC[C@H](O)CC1 [AMBROXOL]
Not Active: IC50 [1] | IC50 (D(3) dopamine receptor) | IC50 [2] | IC50 [3] | IC50 (Androgen receptor)

CCC1(c2ccc(N)cc2)CCC(=O)NC1=O (stereo not drawn) [AMINOGLUTETHIMIDE]
Not Active: IC50 [1] | IC50 (D(3) dopamine receptor) | IC50 [2] | IC50 [3] | IC50 (Androgen receptor) | IC50 (Cytochrome P450 2D6) | Ki (Cytochrome P450 2D6)

COc1ccc(C[C@H]2NC[C@H](O)[C@H]2OC(C)=O)cc1 [ANISOMYCIN]
Not Active: IC50 [1] | Ki [1] | IC50 (D(3) dopamine receptor) | Ki (D(3) dopamine receptor) | IC50 [2] | Ki [2] | IC50 [3] | Ki [3] | IC50 (Androgen receptor) | Ki (Androgen receptor) | IC50 (Cytochrome P450 2D6) | Ki (Cytochrome P450 2D6)

Nc1ncn([C@@H]2O[C@H](CO)[C@@H](O)[C@H]2O)c(=O)n1 [AZACITIDINE]
Not Active: IC50 [1] | IC50 (D(3) dopamine receptor) | IC50 [2] | IC50 [3] | IC50 (Androgen receptor) | IC50 (Cytochrome P450 2D6) | Ki (Cytochrome P450 2D6)

c1ccc2c(c1)c1cccc3ccc4cccc2c4c31 [BENZO[E]PYRENE]
Not Active: IC50 [1] | IC50 (D(3) dopamine receptor) | IC50 [2] | IC50 [3] | IC50 (Androgen receptor) | IC50 (Cytochrome P450 2D6) | Ki (Cytochrome P450 2D6)

C[C@H](CS)C(=O)N1CCC[C@H]1C(=O)O [CAPTOPRIL]
Not Active: IC50 [1] | IC50 (D(3) dopamine receptor) | IC50 [2] | IC50 [3] | IC50 (Androgen receptor) | IC50 (Cytochrome P450 2D6) | Ki (Cytochrome P450 2D6)

CC1=C2C(=CO[C@H](C)[C@H]2C)C(O)=C(C(=O)O)C1=O [CITRININ]
Not Active: IC50 [1] | IC50 (D(3) dopamine receptor) | IC50 [2] | IC50 [3] | IC50 (Androgen receptor) | IC50 (Cytochrome P450 2D6) | Ki (Cytochrome P450 2D6)

CNNCc1ccc(C(=O)NC(C)C)cc1 [PROCARBAZINE]
Not Active: IC50 [1] | IC50 (D(3) dopamine receptor) | IC50 [2] | IC50 [3] | IC50 (Cytochrome P450 2D6) | Ki (Cytochrome P450 2D6)

CC(O)CO (stereo not drawn) [PROPYLENE GLYCOL]
Not Active: IC50 [1] | IC50 (D(3) dopamine receptor) | IC50 [2] | IC50 [3] | IC50 (Cytochrome P450 2D6) | Ki (Cytochrome P450 2D6)
